Assay results: article PMC7658347, “The cryo-EM structure of a γ-TuSC elucidates architecture and regulation of minimal microtubule nucleation systems” (Nature Communications, 2020)

Biological target: T1, C. albicans γ-TuSC (γ-tubulin small complex; Spc97, Spc98, γ-tubulin/Tub4) (Candida albicans, UniProt O93807)
T1 construct: full-length, codon-optimized genes, expressed in SF21 insect cells; heterotetramer; N-terminal 91 (Spc97) and 149 (Spc98) residues not resolved; with Spindle pole body component (Spc97); Spindle pole body component (Spc98)
T1 sequence (O93807 1-502): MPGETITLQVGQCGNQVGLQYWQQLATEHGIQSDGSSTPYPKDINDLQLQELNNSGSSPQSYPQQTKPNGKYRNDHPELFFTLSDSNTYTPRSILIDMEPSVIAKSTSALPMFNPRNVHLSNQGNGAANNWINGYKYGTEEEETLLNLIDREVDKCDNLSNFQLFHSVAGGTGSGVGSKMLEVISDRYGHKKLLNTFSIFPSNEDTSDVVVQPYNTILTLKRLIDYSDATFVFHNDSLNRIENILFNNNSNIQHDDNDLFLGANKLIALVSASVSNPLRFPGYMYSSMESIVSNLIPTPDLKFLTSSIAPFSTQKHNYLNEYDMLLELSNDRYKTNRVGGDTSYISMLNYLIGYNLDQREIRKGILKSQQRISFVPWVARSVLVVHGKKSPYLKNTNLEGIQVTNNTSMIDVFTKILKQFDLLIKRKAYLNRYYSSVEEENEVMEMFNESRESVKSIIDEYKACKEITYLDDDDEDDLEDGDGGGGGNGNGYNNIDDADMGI
T1 sequence (Q59PZ2 1-871 partner): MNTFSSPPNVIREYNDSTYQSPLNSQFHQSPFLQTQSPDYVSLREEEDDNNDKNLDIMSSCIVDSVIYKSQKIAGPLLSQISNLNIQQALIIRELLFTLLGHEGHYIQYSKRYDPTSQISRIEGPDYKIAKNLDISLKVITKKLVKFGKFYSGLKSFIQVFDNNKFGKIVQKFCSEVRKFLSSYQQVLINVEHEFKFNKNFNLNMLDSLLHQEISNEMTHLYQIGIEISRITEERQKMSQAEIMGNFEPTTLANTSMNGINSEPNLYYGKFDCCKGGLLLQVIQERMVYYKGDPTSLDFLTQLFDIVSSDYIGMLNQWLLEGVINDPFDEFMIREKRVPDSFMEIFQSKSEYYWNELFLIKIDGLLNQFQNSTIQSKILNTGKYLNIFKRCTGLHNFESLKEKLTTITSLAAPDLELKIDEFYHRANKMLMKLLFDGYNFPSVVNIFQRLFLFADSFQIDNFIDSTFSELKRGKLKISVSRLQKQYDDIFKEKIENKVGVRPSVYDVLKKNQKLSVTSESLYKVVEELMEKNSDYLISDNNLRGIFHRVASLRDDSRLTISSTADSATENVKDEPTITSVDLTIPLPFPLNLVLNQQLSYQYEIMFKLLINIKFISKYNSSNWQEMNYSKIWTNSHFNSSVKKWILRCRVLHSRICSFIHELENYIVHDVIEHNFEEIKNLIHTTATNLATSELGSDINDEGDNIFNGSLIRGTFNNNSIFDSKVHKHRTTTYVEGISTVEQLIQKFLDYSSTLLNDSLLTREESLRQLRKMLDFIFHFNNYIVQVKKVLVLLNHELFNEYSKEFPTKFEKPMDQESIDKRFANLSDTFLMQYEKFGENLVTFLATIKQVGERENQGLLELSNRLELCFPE
T1 sequence (A0A1D8PS42 1-785 partner): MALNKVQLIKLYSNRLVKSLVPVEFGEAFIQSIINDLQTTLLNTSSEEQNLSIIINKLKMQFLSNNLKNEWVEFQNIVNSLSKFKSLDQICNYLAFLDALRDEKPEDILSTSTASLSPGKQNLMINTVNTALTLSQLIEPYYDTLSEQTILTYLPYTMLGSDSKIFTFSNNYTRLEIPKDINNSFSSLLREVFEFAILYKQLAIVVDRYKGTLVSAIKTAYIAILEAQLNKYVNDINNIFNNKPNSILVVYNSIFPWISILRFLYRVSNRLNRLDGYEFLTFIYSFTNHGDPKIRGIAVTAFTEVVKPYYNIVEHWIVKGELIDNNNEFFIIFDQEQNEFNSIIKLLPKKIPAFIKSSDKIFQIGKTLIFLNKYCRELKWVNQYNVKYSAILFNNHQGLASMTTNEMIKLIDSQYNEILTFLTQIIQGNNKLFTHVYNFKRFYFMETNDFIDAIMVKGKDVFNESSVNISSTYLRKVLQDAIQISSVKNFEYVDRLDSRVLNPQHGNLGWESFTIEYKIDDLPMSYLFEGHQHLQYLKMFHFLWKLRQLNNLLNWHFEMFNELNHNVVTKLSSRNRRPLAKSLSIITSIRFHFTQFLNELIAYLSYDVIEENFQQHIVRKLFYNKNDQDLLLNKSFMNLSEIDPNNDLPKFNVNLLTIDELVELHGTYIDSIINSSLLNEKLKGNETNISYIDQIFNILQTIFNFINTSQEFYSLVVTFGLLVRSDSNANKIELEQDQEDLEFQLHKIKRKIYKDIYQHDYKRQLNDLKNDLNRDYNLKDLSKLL
Assay: cryo-EM structure ([…] Å)
Conditions: co-purified nucleotide, none added; nucleotide-binding pocket of γ-tubulin; assigned from density lacking γ-phosphate; Table 1 lists 0 ligands in the refined model

Structure (SMILES): Nc1nc2c(ncn2[C@@H]2O[C@H](COP(=O)(O)OP(=O)(O)O)[C@@H](O)[C@H]2O)c(=O)[nH]1 [GDP]
- cryo-EM structure (3.6 Å): Our cryo-EM density of the C. albicans γ-TuSC indicates binding of GDP, rather than GTP
